Like-named read-outs stand apart in the source and are kept apart here.
What was measured:
IFN (interferon-gamma) = assay: PHA-stimulated peripheral blood lymphocyte cytokine release: IFN; assay type: cell-based; conditions: Homo sapiens, read-out: IFN % inh.
Source text: (§1) The ability of various amines to affect the inflammatory responses was illustrated by its ability to reduce the production of cytokines by human lymphocytes stimulated with the T-cell receptor (TCR) activating agent phytohaemagglutinin (PHA) in the following assay.
(§2) Human leukocytes were collected from a healthy adult […] via leukopheresis, and adjusted to a density Of 1×10^6 cells/mL in serum free lymphocyte growth medium (ExVivo-15, Biowhittaker, Walkersville, Md.). PBLs were stimulated with 10 μg/mL PHA in the presence or absence of test samples following published methods (Hamamoto Y., et al. Exp Dermatol 2:231-235, 1993). The following compounds were evaluated N,N,N′,N′-Tetrakis(2-hydroxypropyl)ethylenediamine (THPED, available from BASF under the tradename “Quadrol” or “Neutrol”), N,N,N,N-Tetramethylethylenediamine (TEMED, available from Pfaltz & Bauer Chemicals (Waterbury, Conn.)), and Diethylenetriamine (available from Sigma-Aldrich) Following a 48 hour incubation at 37° C. with 5% CO2, the supernatant was removed and evaluated for cytokine content using commercially available multiplex cytokine detection kit.

[1] = system: TNF (tissue necrosis factor-alpha); assay: PHA-stimulated peripheral blood lymphocyte cytokine release: TNF; assay type: cell-based; conditions: Homo sapiens, read-out: TNF % inh.
Source text: as §1, §2

[2] = system: GM-CSF (granulocyte macrophage stimulating factor); assay: PHA-stimulated peripheral blood lymphocyte cytokine release: GM-CSF; assay type: cell-based; conditions: Homo sapiens, read-out: GMCSF % inh.
Source text: as §1, §2

IL-2 (Interleukin-2) = assay: PHA-stimulated peripheral blood lymphocyte cytokine release: IL-2; assay type: cell-based; conditions: Homo sapiens, read-out: IL-2 % inh.
Source text: as §1, §2

B16 cells = assay: Induction of pigmentation in vitro, DOPA staining; assay type: cell-based, murine; conditions: 10 ug/ml, 48 hours
Method: THPED was tested for its effect on pigmentation, using melanocytes, DOPA staining and computerized image analysis. THPED was obtained from BASF (Florham Park, N.J.). THPED was dissolved in culture medium and pH was adjusted to neutral (pH 7.2). THPED was assayed at concentrations ranging from 0.05-0.01%.
B16 cells (a murine melanoma cell line) were obtained from American Type Culture Collection (Manassas, Va.). Cells were cultured in Dulbecco's Modified Eagle Medium (DMEM) containing 10% fetal bovine serum (FBS), 4.5 mg/ml glucose, 2 mM L-glutamine, sodium pyruvate, without phenol red (Invitrogen, Carlsbad, Calif.). B16 cells were plated on 12 well tissue culture plates (Corning Costar, San Diego, Calif.), at 40,000 cells per well in the above culture media. Cells were allowed to grow overnight and then treated with various concentrations of THPED at pH 7.2 for total 48 hours. Fresh media containing the experimental treatments were changed once daily.
At the end of the treatment, the cells were washed for 5 minutes, twice, in phosphate-buffered saline (PBS, from Life Technologies, Gaithersburg, Md.), then briefly fixed in 10% buffered formalin (from Sigma St. Louis, Mo.) for 10 minutes, washed three times with PBS and stained with 0.1% L-3,4-Dihydroxyphenylalanine (DOPA, from Sigma, St. Louis, Mo.) in PBS for 2-3 hours at 37° C., followed by three PBS washes. DOPA is a substrate for tyrosinase; therefore an increase in staining represents increased tyrosinase activity and pigment production. Images of DOPA-stained cells were taken using a Leica DMIL microscope (Bannockburn, Ill.) and an OPTRONICS DEI-750 digital camera (Goleta, Calif.). All images were obtained and analyzed with Image Pro Plus 4.0 software (Media Cybernetics, Silver Spring, Md.).
The pigment change was evaluated using the scale defined in Table XII.

tyrosinase [3] = assay: Tyrosinase activity in lysates of treated B16 cells (DOPA, absorbance 490 nm); assay type: cell-based, murine; conditions: 10 μg/ml; B16 cells 48 hours; activity at 3-hours, normalized for total protein
Method: THPED was also tested for its ability to induce tyrosinase activity in B16 cells by spectroscopic measuring of the final product, melanin. B16 cells were treated with THPED at different concentrations at pH 7.2 for 48 hours and cells were then lysed in 250 μl of PBS containing 1% Triton X-100 (Sigma, St. Louis, Mo.). The lysates were collected and centrifuged at 14,000 rpm for 5 minutes at 4° C. to pellet any insoluble material. Lysates (100 μl) were transferred to a 96 well assay plate (Corning Costar, San Diego, Calif.) and mixed with 100 μl of 0.1% (w/v) DOPA in PBS. The absorbance at 490 nm was then monitored from 0 to 12 hours using a VersaMax Plate Spectrophotometer (Molecular Devices, Sunnyvale, Calif.) and SoftMax Pro analytical software (Molecular Devices, Sunnyvale, Calif.). The tyrosinase activities were normalized for total protein using the BioRad Dc Protein Assay (Bio Rad, Hercules, Calif.).

tyrosinase [4] = assay: Tyrosinase protein levels in B16 cells (Western blot, normalized to β-Actin); assay type: cell-based, murine; conditions: 20 μg/ml, PBS treated control = 1
Method: THPED was also tested for its ability to induce tyrosinase protein levels in B16 cells. B16 cells were treated with THPED at different concentrations at pH 7.2 for 48 hours and cells were then lysed in 250 μl of PBS containing 1% Triton X-100. B16 cell lysates containing 3.7 μg of protein (for tyrosinase protein analysis) and 1.2 μg of protein (for β-Actin protein analysis) were electrophoresed on 4-20% Tris-Glycine SDS PAGE minigels (Invitrogen, Carlsbad, Calif.), transferred onto PVDF membrane (Bio Rad, Hercules, Calif.), and probed with antibodies for Tyrosinase (1:200 in PBS+0.2% Tween 20+5% BSA, obtained from Santa Cruz Biotechnology, Inc., Santa Cruz, Calif.) and β-Actin (1:2000 in PBS+0.2% Tween 20+5% BSA, obtained from Sigma, St. Louis, Mo.). Protein expression of tyrosinase and β-Actin were analyzed using ECL reagent and Hyperfilm ECL obtained from Amersham (Piscataway, N.J.). The film was developed using a Konica SRX-101A Processor (East Orange, N.J.).
Tyrosinase protein level in untreated B16 cells was normalized to 1.

[5] = 10 μg/ml, 10 μg/mL PHA, 48 hour incubation
[6] = 100 μg/ml, 10 μg/mL PHA, 48 hour incubation

SMILES: NCCNCCN [Diethylenetriamine]
- inhibition at 10 µg/mL (IFN (interferon-gamma); [5]): -1.2%
- inhibition at 100 µg/mL (IFN (interferon-gamma); [6]): -35%
- inhibition at 10 µg/mL [1, 5]: 9.9%
- inhibition at 100 µg/mL [1, 6]: 3.3%
- inhibition at 10 µg/mL [2, 5]: 36.6%
- inhibition at 100 µg/mL [2, 6]: 51.7%
- inhibition at 10 µg/mL (IL-2 (Interleukin-2); [5]): 4.7%
- inhibition at 100 µg/mL (IL-2 (Interleukin-2); [6]): -19.5%

SMILES: C=C[C@@]1(C)CC(=O)[C@]2(O)[C@@]3(C)[C@@H](O)CCC(C)(C)[C@@H]3[C@H](O)[C@H](OC(C)=O)[C@@]2(C)O1 [Forskolin, forskolin, reference compound]
- Pigmentation score (B16 cells): 3
- % tyrosinase activity relative to untreated control (tyrosinase [3]): 202.35%
- Relative increase in tyrosinase protein (tyrosinase [4]): 34 fold

SMILES: CN(C)CCN(C)C [TEMED, N, N, N′, N′-tetramethylethylene diamine]
- inhibition at 10 µg/mL (IFN (interferon-gamma); 48 h): 36.9%
- inhibition at 100 µg/mL (IFN (interferon-gamma); 48 h): 58.6%
- inhibition at 10 µg/mL ([1]; 48 h): 33.6%
- inhibition at 100 µg/mL ([1]; 48 h): 41.8%
- inhibition at 10 µg/mL ([2]; 48 h): 47.4%
- inhibition at 100 µg/mL ([2]; 48 h): 53.1%
- inhibition at 10 µg/mL (IL-2 (Interleukin-2); 48 h): 6.6%
- inhibition at 100 µg/mL (IL-2 (Interleukin-2); 48 h): 42.9%

SMILES: OCCN(CCO)CCN(CCO)CCO [THEED, N, N, N′, N′-Tetrakis(2-hydroxyethyl)ethylene diamine]
- inhibition at 10 µg/mL (IFN (interferon-gamma); 48 h): 23.7%
- inhibition at 100 µg/mL (IFN (interferon-gamma); 48 h): 49.5%
- inhibition at 10 µg/mL ([1]; 48 h): 35.8%
- inhibition at 100 µg/mL ([1]; 48 h): 44.5%
- inhibition at 10 µg/mL ([2]; 48 h): 16.6%
- inhibition at 100 µg/mL ([2]; 48 h): 23%
- inhibition at 10 µg/mL (IL-2 (Interleukin-2); 48 h): 27.7%
- inhibition at 100 µg/mL (IL-2 (Interleukin-2); 48 h): 61.8%

SMILES: CC(C)NCCN(CCNC(C)C)CCNC(C)C [Tris[2-(isopropylamino)ethyl]amine, reference compound]
- inhibition at 10 µg/mL (IFN (interferon-gamma); [5]): 20.3%
- inhibition at 100 µg/mL (IFN (interferon-gamma); [6]): 12.5%
- inhibition at 10 µg/mL [1, 5]: -10.7%
- inhibition at 100 µg/mL [1, 6]: -15.3%
- inhibition at 10 µg/mL [2, 5]: -26.4%
- inhibition at 100 µg/mL [2, 6]: -52.8%
- inhibition at 10 µg/mL (IL-2 (Interleukin-2); [5]): -7.7%
- inhibition at 100 µg/mL (IL-2 (Interleukin-2); [6]): 2.3%
